# Laboratory results as given in PubChem BioAssay AID2683 (Broad Institute, 2010).
# Several values for one entry are separate records, joined by “and”; a condition that tells them apart may be missing. Equal entries are not always repeated. Activity calls are given as the source filed them.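 How the source made its calls: active means rising-signal curve whose EC50 is at most tenfold above the top concentration tested; inconclusive means flat fit with activity between 30% and 70%, or invalid fit; inactive means the rest.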
# Tested on: S. cerevisiae SKY197-pL101 polyadenylation reporter, beta-gal luminescence, 9 h
# Assay: yeast polyadenylation reporter signal increase, dose response, polyadenylation inhibitor project, S. cerevisiae SKY197-pL101, beta-gal luminescence (AID 2683)
row,Structure (SMILES),EC50
1,N#C/C(=C\c1ccc([N+](=O)[O-])o1)c1nc2ccccc2[nH]1,10.8 µM
2,N#C/C(=C\c1ccco1)c1nc2ccccc2[nH]1,> 12 µM (inactive)
3,Cc1ccc2nc(/C(C#N)=C/c3ccc([N+](=O)[O-])o3)[nH]c2c1,6.5 µM and 7.25 µM
4,Cc1cccc2[nH]c(/C(C#N)=C/c3ccc([N+](=O)[O-])o3)nc12,5.83 µM
5,Cc1ccc2nc(/C(C#N)=C/c3ccc(C)o3)[nH]c2c1,> 12 µM (inactive)
6,N#C/C(=C/c1ccc([N+](=O)[O-])o1)c1nc2ccccc2[nH]1,8.25 µM
7,N#C/C(=C\c1cccc([N+](=O)[O-])c1)c1nc2ccccc2[nH]1,> 12 µM (inactive)
